These results are taken from publication PMC12040169 (PLOS Biology, 2025).

Structures are written as SMILES.

A short description of the first data set: in vitro. The following applies: human, hela cells, % viability.
Usually viability stands for a read-out of living cells in per cent, often relative to untreated cells. Turning to `CS(=O)(=O)N1CCCC(C(=O)Nc2nccs2)C1` (centres unmarked) [CBK287834], the viability at 28.5 h, 10 µM was determined as 100%.
As to `Cc1cc(=O)n(CC(=O)Nc2ccc3c(c2)OCO3)cn1` [CBK287835], the viability at 28.5 h, 10 µM turned out to be 109%.
On the same count and under the same terms, the same measure for `COc1ccc(C(=O)Nc2cc(C)nn2-c2nc3ccccc3s2)cc1` [CBK287841]: 89.8%; for `O=C(Cn1cnc2ccccc2c1=O)NCCc1ccsc1` [CBK287844]: 92.6%; for `CCn1nc(-c2ccc(Cl)cc2)c2c(=O)n(C)c(=O)[nH]c21` [CBK287845]: 108%.
On the same count and under the same terms, with `COc1ccc(C2CC(c3ccc(Cl)cc3)Nc3ncnn32)c(OC)c1` (centres unmarked) [CBK287848] the figure was 98.7%.
Take `CCCNC(=O)c1sc(Nc2ccc(Cl)cn2)nc1C` [CBK287850]: the viability at 28.5 h, 10 µM came out at 98.4%.
Still for that read-out and setting: with `Cn1c(=O)[nH]c2c(nc(-c3ccccc3)n2C)c1=O` [CBK287855] the figure was 78.2%; with `Cc1ccc(C(=O)Nc2nnn(C)n2)c(Cl)c1` [CBK287856], 97.4%.
Same read-out and setting: with `c1ccc(-c2nc3cnccn3c2Nc2ccc3c(c2)OCCO3)cc1` [CBK287857] the figure was 94.4%.
The same measure, in the same setting: with `O=c1c2c(-c3ccccc3)ccnc2[nH]n1-c1ccccc1` [CBK287858] the figure was 97%; with `O=C1CC(c2ccco2)Cc2c1cnn2-c1ccccc1` (centres unmarked) [CBK287860], 95.8%.
As for `Cc1cc(C)nc(NC(=N)NC2Cc3ccccc3C2)n1` [CBK287863], the viability at 28.5 h, 10 µM is 43.4%.
`CC(C)Cn1cnc2c(c1=N)C(c1ccccc1)c1ccc(O)cc1O2` (centres unmarked) [CBK287864]: the viability at 28.5 h, 10 µM was determined as 101%.
For `c1cc2c(cc1-c1nn3cnnc3s1)OCCO2` [CBK287866], the viability at 28.5 h, 10 µM came out at 88.1%.
The same measure, in the same setting: with `O=C(O)c1ccc(-c2n[nH]c(=O)c3c2CCCC3)cc1` [CBK287868] the figure was 93.6%.
`c1ccc(-c2cc3nccc(-c4ccccc4)n3n2)cc1` [CBK287871]: the viability at 28.5 h, 10 µM came out at 93.7%.
The same measure, in the same setting: the same measure for `Cc1nnc(Nc2ccc(F)cc2)c2ccccc12` [CBK287873]: 93.9%; for `COc1ccc(-c2noc(-c3cnccn3)n2)c(OC)c1` [CBK287878]: 83.6%; for `Cc1nn2c(N)ncnc2c1-c1ccc(Cl)cc1` [CBK287880]: 68.8%.
Regarding `Nc1nc(-c2ccc(F)cc2)c2c(n1)-c1ccccc1C2=O` [CBK287881], the viability at 28.5 h, 10 µM was found to be 114%.
On the same count and under the same terms, the same measure for `O=C(Nc1cccc2ncccc12)c1ccnc(N2CCOCC2)c1` [CBK287882]: 102%.
Still for that read-out and setting: with `Fc1ccccc1CSc1nc2ccc[nH]c-2n1` [CBK287883] the figure was 91.2%; with `CC1CC(=O)c2cnc(Nc3ccccc3)nc2C1` (centres unmarked) [CBK287884], 92.4%; with `Cc1nn(-c2ncccn2)c2c1C(C(=O)c1ccccc1)CC(=O)N2` (centres unmarked) [CBK287890], 93.2%.
Same read-out and setting: with `Cc1c(C)c2c(O)n(-c3ccccc3)nc2[nH]c1=O` [CBK287891] the figure was 89.3%; with `O=C1Nc2ccccc2C1Cc1cccc(OC(F)F)c1` (centres unmarked) [CBK287892], 95%.
In the case of `Cc1nn(-c2ccccc2)c2c1C(c1cnn(C)c1)SCC(=O)N2` (centres unmarked) [CBK287896], the viability at 28.5 h, 10 µM is 114%.
For `O=c1cnnc(Nc2cccc(Cl)c2Cl)[nH]1` [CBK287897], the viability at 28.5 h, 10 µM was determined as 93%.
The same measure, in the same setting: with `Cc1nc(=O)c(-c2ccccc2)c(C)n1CCc1c[nH]cn1` [CBK287900] the figure was 89.3%.
Consider `O=C(C1CCCN(c2ccc3nncn3n2)C1)N1CCOCC1` (centres unmarked) [CBK287901], for which the viability at 28.5 h, 10 µM came to 104%.
On the same count and under the same terms, with `Cn1c(=O)c2[nH]c(-c3ccncc3)nc2n(C)c1=O` [CBK287902] the figure was 92.5%; with `O=C(c1ccccc1)N1CCc2[nH]nc(-c3ccccc3)c2C1` [CBK287904], 92.5%.
On the same count and under the same terms, with `COc1ccc(C2C=C(C)Nc3nc(N)nn32)cc1` (centres unmarked) [CBK287906] the figure was 91.8%; with `Fc1ccc(CCNc2ccc3nncn3n2)cc1` [CBK287909], 88.2%.
Same read-out and setting: the same measure for `Cn1ccc2ccc(C(=O)Nc3nccs3)cc21` [CBK287910]: 106%.
With `O=C1CC(c2ccccc2)c2c(n3ncnc3[nH]c2=O)N1` (centres unmarked) [CBK287912], the viability at 28.5 h, 10 µM turned out to be 89.4%.
Consider `O=C(NCc1ccccc1)C1CCCN(c2ncnc3[nH]cnc23)C1` (centres unmarked) [CBK287916], for which the viability at 28.5 h, 10 µM turned out to be 91.4%.
Turning to `Cc1cc(C)c2c(n1)oc1c(NC(C)C)ncnc12` [CBK287917], the viability at 28.5 h, 10 µM came to 108%.
Still for that read-out and setting: the same measure for `O=C(O)CCC(=O)N1CCC(c2nnc3ccccn23)CC1` [CBK287920]: 104%; for `Oc1cnnc(Nc2ccc(Nc3ccccc3)cc2)n1` [CBK287921]: 101%.
For `Cc1cc(Cl)ccc1Nc1nnc(C)c(=O)[nH]1` [CBK287922], the viability at 28.5 h, 10 µM came out at 110%.
The same measure, in the same setting: the same measure for `O=C1CC(c2ccccc2)c2c(n3ccsc3nc2=O)N1` (centres unmarked) [CBK287923]: 98.7%.
The same measure, in the same setting: the same measure for `CC(C)CC1CC(=O)Nc2c1c(=O)[nH]n2C(C)C` (centres unmarked) [CBK287924]: 105%.
In the case of `Cc1nn(-c2ccccc2)c(C)c1C1CC(=O)Nc2c1cnn2C(C)C` (centres unmarked) [CBK287925], the viability at 28.5 h, 10 µM was determined as 104%.
With `CC(C)n1ncc2c1NC(=O)CC2c1ccc2c(c1)n(C)c(=O)n2C` (centres unmarked) [CBK287926], the viability at 28.5 h, 10 µM worked out at 108%.
On to `O=C1CC(c2cccnc2)c2sc(N3CCOCC3)nc2N1` (centres unmarked) [CBK287927], for which the viability at 28.5 h, 10 µM was found to be 105%.
As to `Cc1ccc(-c2[nH]ncc2C(=O)c2ccccc2C)c(O)c1` [CBK287929], the viability at 28.5 h, 10 µM is 102%.
Same read-out and setting: with `NC(=O)c1cccnc1-c1nc2ccccc2s1` [CBK287930] the figure was 80%.
The same measure, in the same setting: with `Cc1cc(NCc2ccccc2)nc2[nH]nc(N)c12` [CBK287931] the figure was 87.7%; with `CCc1cc(-c2n[nH]cc2-c2nc(C)cs2)c(O)cc1OC` [CBK287934], 103%; with `O=C1CSC(c2ccc(F)cc2Cl)c2c[nH]nc2N1` (centres unmarked) [CBK287935], 91.4%.
For the molecule `CC(=O)Nc1nc(NC(C)=O)n(-c2ccccc2)n1` [CBK287938], the viability at 28.5 h, 10 µM was determined as 86%.
Still for that read-out and setting: with `Cc1nc2c(c(N3CCOCC3)n1)OCC(=O)N2` [CBK287939] the figure was 94.5%.
As to `Cn1ncc2c1NC(=O)CC2c1c[nH]nc1-c1ccccc1` (centres unmarked) [CBK287941], the viability at 28.5 h, 10 µM was 99.5%.
The same measure, in the same setting: with `N#Cc1cnn2c(O)cc(Cc3ccccc3)nc12` [CBK287942] the figure was 110%.
For `Cc1cc(-c2nnc3n2N=C(c2ccccc2)CS3)n[nH]1` [CBK287944], the viability at 28.5 h, 10 µM was determined as 98.3%.
On the same count and under the same terms, with `Nc1nc2n(n1)C(c1ccccc1)C1=C(CCCC1)N2` (centres unmarked) [CBK287949] the figure was 107%; with `Cn1c2ccccc2c2ncn(CCCO)c(=O)c21` [CBK287951], 56.9%; with `CCn1cnc2sc(-c3ccccc3)cc2c1=O` [CBK287952], 65.7%.
As to `CCN1CCN(c2ccc(N3C(=O)N[C@@H](C(C)C)C3=O)cc2)CC1` [CBK287953], the viability at 28.5 h, 10 µM is 87.5%.
As to `CSCC[C@@H]1NC(=O)N(c2ccc(CN3CCOCC3)cc2)C1=O` [CBK287954], the viability at 28.5 h, 10 µM was determined as 83.2%.
The same measure, in the same setting: with `CN(CCC#N)C(=O)c1cc2cc(Cl)ccc2[nH]1` [CBK287956] the figure was 98%; with `Cc1cccc(-c2n[nH]/c(=N/C(=O)c3ccccc3F)s2)c1` [CBK287957], 84.5%.
Still for that read-out and setting: the same measure for `O=c1nc2n(Cc3ccccc3)c3ccccc3cc-2c(=O)[nH]1` [CBK287958]: 79.8%.
On to `COc1ccc(O)c(-c2c(-c3ccc(C)cc3)n[nH]c2C)c1` [CBK287961], for which the viability at 28.5 h, 10 µM came out at 93.1%.
On to `Cc1cccc(CSc2nc3ncccc3[nH]2)c1` [CBK287963], for which the viability at 28.5 h, 10 µM was 96.9%.
Still for that read-out and setting: the same measure for `CCOCCCNc1nc2c(c(=O)[nH]c(=O)n2C)n1CCC(C)C` [CBK287968]: 87.7%.
The same measure, in the same setting: with `O=C1NC2(CCCCC2)C(=O)N1c1cccc(Cl)c1` [CBK287969] the figure was 94.3%; with `CN(Cc1ccccc1)C(=O)c1cc(=O)[nH]c2ccccc12` [CBK287971], 92.8%; with `CCN1CCN(c2ccc3nnc(C(C)C)n3n2)CC1` [CBK287974], 88.3%.
On the same count and under the same terms, the same measure for `O=c1c2cc(OCc3ccc(Cl)cc3)ccc2nc2n1CCC2` [CBK287977]: 91.6%.
On to `Cc1ccc(-c2ccnc3[nH]c(=O)[nH]c(=O)c23)cc1` [CBK287978], for which the viability at 28.5 h, 10 µM amounted to 89.7%.
Regarding `O=C1CC(C(=O)Nc2ccccc2)n2cnnc2N1` (centres unmarked) [CBK287980], the viability at 28.5 h, 10 µM is 112%.
As to `COc1cccc(C2SCC(=O)Nc3[nH]nc(C)c32)c1` (centres unmarked) [CBK287981], the viability at 28.5 h, 10 µM amounted to 78.2%.
The same measure, in the same setting: the same measure for `O=C(Nc1ccncc1)c1snnc1-c1ccccc1` [CBK287982]: 81.4%.
Still for that read-out and setting: the same measure for `COc1ccc(OC)c(-n2cnc3c2NC(=O)CC3c2ccccc2Cl)c1` (centres unmarked) [CBK287983]: 91.1%; for `COc1cc2ncnc(NCc3ccccc3)c2cc1OC` [CBK287984]: 79.7%; for `O=C(Cn1nc(-c2ccco2)ccc1=O)Nc1ccccn1` [CBK287985]: 87.4%.
For `COc1cccc(CC(=O)Nc2ccc3c(C)cc(C)nc3n2)c1` [CBK287992], the viability at 28.5 h, 10 µM worked out at 74.1%.
On the same count and under the same terms, the same measure for `COc1ccc(CC(=O)NCC(=O)N2CCC3(CC2)NCCc2nc[nH]c23)cc1` [CBK287997]: 110%.
Same read-out and setting: with `COc1ccc(CCN2C(=O)N[C@@H](CCC(=O)NC3CC3)C2=O)cc1` [CBK288001] the figure was 109%; with `O=C1Nc2ccccc2C12CC(c1ccccc1Cl)=NN2` (centres unmarked) [CBK288004], 111%; with `Cc1ccc(-n2c3nc(=O)n(C)c(=O)c-3cc3ccccc32)cc1` [CBK288007], 103%.
Still for that read-out and setting: with `Cc1cc(C)cc(Cn2cc(NCc3ccccc3)c(=O)[nH]c2=O)c1` [CBK288009] the figure was 106%.

Staying with this data set, now noted: human, hela cells, % viability, bulk resorufin, single well.
For the molecule `CC(=O)c1c(O)n(C2CCCCC2)c(=O)[nH]c1=O` [CBK287861], the viability at 28.5 h, 10 µM was found to be 91.9%.
